Measurements from US9695155B2, “Herbicidal substituted pyrimidinyloxy benzene compounds” (E. I. DU PONT DE NEMOURS AND COMPANY, priority 2013, dated 2017).

Tests used:
johnsongrass = experiment: Test C preemergence; assay type: in vivo, Sorghum halepense; settings: Sorghum halepense, pre-emergence
How it was run: (§1)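 Visual injury score versus untreated controls, 0 = no effect, 100 = complete control, taken 13 to 15 days after treatment in the greenhouse. Pre-emergence pots held loam/sand; post-emergence plants grew in sphagnum peat/vermiculite mix and were sprayed at the 1- to 4-leaf stage.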

barnyardgrass [1] = experiment: Test A preemergence; assay type: in vivo, Echinochloa crus-galli
How it was run: (§2)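 Scoring: eye-based comparison with untreated controls, 0 for no effect through 100 for complete control, at about day 10. Treatments: directed soil spray preemergence; foliar spray postemergence on 2–10 cm plants at the one- to two-leaf stage. Medium: loam soil with sand.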

barnyardgrass [2] = experiment: Test A postemergence; assay type: in vivo, Echinochloa crus-galli; settings: Echinochloa crus-galli, post-emergence, 240 h, 0 to 100 scale, 0 no effect, 100 complete control, read-out: Plant response rating, Barnyardgrass
How it was run: as §2

Italian ryegrass [3] = experiment: Test A preemergence; assay type: in vivo, Lolium multiflorum
How it was run: as §2

wheat = experiment: Test A postemergence; assay type: in vivo, Triticum aestivum; settings: Triticum aestivum, post-emergence, 240 h, 0 to 100 scale, 0 no effect, 100 complete control, read-out: Plant response rating, Wheat
How it was run: as §2

kochia = experiment: Test A preemergence; assay type: in vivo, Kochia scoparia
How it was run: as §2

galium [4] = experiment: Test C preemergence; assay type: in vivo, Galium aparine; settings: Galium, pre-emergence
How it was run: as §1

blackgrass = experiment: Test C postemergence; assay type: in vivo, Alopecurus myosuroides; settings: Alopecurus myosuroides, post-emergence
How it was run: as §1

soybean = experiment: Test C postemergence; assay type: in vivo, Glycine max
How it was run: as §1

velvetleaf = experiment: Test C postemergence; assay type: in vivo, Abutilon theophrasti
How it was run: as §1

Italian ryegrass [5] = experiment: Test A postemergence; assay type: in vivo, Lolium multiflorum; settings: 0 to 100 scale, 0 no effect, 100 complete control
How it was run: as §2

morningglory = experiment: Test C preemergence; assay type: in vivo, Ipomoea coccinea; settings: Ipomoea, pre-emergence
How it was run: as §1

Italian ryegrass [6] = experiment: Test C preemergence; assay type: in vivo, Lolium multiflorum; settings: Lolium multiflorum, pre-emergence
How it was run: as §1

lambsquarters = experiment: Test C postemergence; assay type: in vivo, Chenopodium album
How it was run: as §1

galium [7] = experiment: Test C postemergence; assay type: in vivo, Galium aparine; settings: Galium, post-emergence
How it was run: as §1

ragweed = experiment: Test C postemergence; assay type: in vivo, Ambrosia elatior
How it was run: as §1

giant foxtail = experiment: Test C postemergence; assay type: in vivo, Setaria faberii; settings: Setaria faberi, post-emergence
How it was run: as §1

[8] = 31 g ai/ha, 0 to 100 scale where 0 is no effect and 100 is complete control, visual, approximately 10 days
[9] = 31 g ai/ha, postemergence, visual rating, scale 0 to 100 (0 no effect, 100 complete control), 13 to 15 days

N#Cc1cccc(Oc2ncc(Cl)cn2)c1-n1cc(C(F)F)cn1 [Compound 253, 3-(5-chloropyrimidin-2-yl)oxy-2-[4-(difluoromethyl)-1H-pyrazol-1-yl]benzonitrile]
pest or weed control at 16 g/ha (johnsongrass; 16 g ai/ha, preemergence, scale 0 to 100 (0 no effect, 100 complete control), read-out: Johnsongrass plant response rating): 15% | pest or weed control at 125 g/ha (johnsongrass; 125 g ai/ha, preemergence, scale 0 (no effect) to 100 (complete control), read-out: Johnsongrass plant response rating): 100% | pest or weed control at 62 g/ha (johnsongrass; Preemergence, 62 g ai/ha, scale 0 to 100, 0 no effect, 100 complete control, read-out: Plant response rating, Johnsongrass): 60% | Barnyardgrass plant response rating (0 to 100 scale, 0 is no effect, 100 is complete control) (barnyardgrass [1]; 125 g ai/ha): 100 | pest or weed control at 31 g/ha (barnyardgrass [1]; Echinochloa crus-galli, pre-emergence, 240 h, 31 g ai/ha, 0 to 100 scale where 0 is no effect and 100 is complete control, visual, approximately 10 days, read-out: Plant response rating, Barnyardgrass): 50% | pest or weed control at 31 g/ha (barnyardgrass [2]; 31 g ai/ha): 20% | pest or weed control at 125 g/ha (barnyardgrass [2]; 125 g ai/ha): 100% | Plant response rating, Ryegrass, Italian (Italian ryegrass [3]; [8]): 20 | Ryegrass, Italian plant response rating (0 to 100 scale) (Italian ryegrass [3]; 125 g ai/ha): 20 | plant injury at 31 g/ha (wheat; 31 g ai/ha): 20% | plant injury at 125 g/ha (wheat; 125 g ai/ha): 30% | Plant response rating, Kochia (kochia; [8]): 90 | Kochia plant response rating (0 to 100 scale) (kochia; 125 g ai/ha): 100 | pest or weed control at 16 g/ha (galium [4]; 16 g ai/ha, preemergence, scale 0 to 100 (0 no effect, 100 complete control), read-out: Galium plant response rating): 70% | pest or weed control at 125 g/ha (galium [4]; 125 g ai/ha, preemergence, scale 0 (no effect) to 100 (complete control), read-out: Galium plant response rating): 95% | pest or weed control at 62 g/ha (galium [4]; Preemergence, 62 g ai/ha, scale 0 to 100, 0 no effect, 100 complete control, read-out: Plant response rating, Galium): 100% | pest or weed control at 16 g/ha (blackgrass; 16 g ai/ha, postemergence, 0 is no effect, 100 is complete control, read-out: Plant response rating (0 to 100), Blackgrass): 0% | pest or weed control at 31 g/ha (blackgrass; 31 g ai/ha, postemergence, visual rating, scale 0 to 100 (0 no effect, 100 complete control), 13 to 15 days, read-out: Blackgrass plant response rating): 0% | pest or weed control at 125 g/ha (blackgrass; 125 g ai/ha, postemergence, visual rating, scale 0 to 100 (0 no effect, 100 complete control), read-out: Plant response rating, Blackgrass): 10% | pest or weed control at 62 g/ha (blackgrass; Postemergence, 62 g ai/ha, scale 0 to 100 (0 no effect, 100 complete control), 13 to 15 days, read-out: Plant response rating, Blackgrass): 0% | Soybean plant response rating (soybean; [9]): 60 | Soybean plant response rating (crop injury, 0-100 scale) at 16 g/ha (soybean; Glycine max, post-emergence, 16 g ai/ha, postemergence, 0 is no effect, 100 is complete control): 40% | Soybean plant response rating (crop injury, 0-100 scale) at 125 g/ha (soybean; Glycine max, post-emergence, 125 g ai/ha, postemergence, visual rating, scale 0 to 100 (0 no effect, 100 complete control), read-out: Plant response rating, Soybean): 90% | Soybean plant response rating (crop injury, 0-100 scale) at 62 g/ha (soybean; Glycine max, post-emergence, Postemergence, 62 g ai/ha, scale 0 to 100 (0 no effect, 100 complete control), 13 to 15 days): 40% | Velvetleaf plant response rating (velvetleaf; [9]): 70 | pest or weed control at 16 g/ha (velvetleaf; Abutilon theophrasti, post-emergence, 16 g ai/ha, postemergence, 0 is no effect, 100 is complete control, read-out: Plant response rating (0 to 100), Velvetleaf): 30% | pest or weed control at 125 g/ha (velvetleaf; Abutilon theophrasti, post-emergence, 125 g ai/ha, postemergence, visual rating, scale 0 to 100 (0 no effect, 100 complete control), read-out: Plant response rating, Velvetleaf): 85% | pest or weed control at 62 g/ha (velvetleaf; Abutilon theophrasti, post-emergence, Postemergence, 62 g ai/ha, scale 0 to 100 (0 no effect, 100 complete control), 13 to 15 days, read-out: Plant response rating, Velvetleaf): 70% | Plant response rating, Ryegrass, Italian (Italian ryegrass [5]; 31 g ai/ha): 0 | Plant response rating, Ryegrass, Italian (Italian ryegrass [5]; 125 g ai/ha): 50 | pest or weed control at 16 g/ha (morningglory; 16 g ai/ha, preemergence, scale 0 to 100 (0 no effect, 100 complete control), read-out: Morningglory plant response rating): 40% | pest or weed control at 125 g/ha (morningglory; 125 g ai/ha, preemergence, scale 0 (no effect) to 100 (complete control), read-out: Morningglory plant response rating): 100% | pest or weed control at 62 g/ha (morningglory; Preemergence, 62 g ai/ha, scale 0 to 100, 0 no effect, 100 complete control, read-out: Plant response rating, Morningglory): 98% | pest or weed control at 16 g/ha (Italian ryegrass [6]; 16 g ai/ha, preemergence, scale 0 to 100 (0 no effect, 100 complete control), read-out: Ryegrass, Italian plant response rating): 0% | pest or weed control at 125 g/ha (Italian ryegrass [6]; 125 g ai/ha, preemergence, scale 0 (no effect) to 100 (complete control), read-out: Ryegrass, Italian plant response rating): 80% | pest or weed control at 62 g/ha (Italian ryegrass [6]; Preemergence, 62 g ai/ha, scale 0 to 100, 0 no effect, 100 complete control, read-out: Plant response rating, Ryegrass, Italian): 35% | Lambsquarters plant response rating (lambsquarters; [9]): 80 | pest or weed control at 16 g/ha (lambsquarters; Chenopodium album, post-emergence, 16 g ai/ha, postemergence, 0 is no effect, 100 is complete control, read-out: Plant response rating (0 to 100), Lambsquarters): 30% | pest or weed control at 125 g/ha (lambsquarters; Chenopodium album, post-emergence, 125 g ai/ha, postemergence, visual rating, scale 0 to 100 (0 no effect, 100 complete control), read-out: Plant response rating, Lambsquarters): 95% | pest or weed control at 62 g/ha (lambsquarters; Chenopodium album, post-emergence, Postemergence, 62 g ai/ha, scale 0 to 100 (0 no effect, 100 complete control), 13 to 15 days, read-out: Plant response rating, Lambsquarters): 80% | pest or weed control at 16 g/ha (galium [7]; 16 g ai/ha, postemergence, 0 is no effect, 100 is complete control, read-out: Plant response rating (0 to 100), Galium): 45% | pest or weed control at 31 g/ha (galium [7]; 31 g ai/ha, postemergence, visual rating, scale 0 to 100 (0 no effect, 100 complete control), 13 to 15 days, read-out: Galium plant response rating): 80% | pest or weed control at 125 g/ha (galium [7]; 125 g ai/ha, postemergence, visual rating, scale 0 to 100 (0 no effect, 100 complete control), read-out: Plant response rating, Galium): 100% | pest or weed control at 62 g/ha (galium [7]; Postemergence, 62 g ai/ha, scale 0 to 100 (0 no effect, 100 complete control), 13 to 15 days, read-out: Plant response rating, Galium): 80% | Ragweed plant response rating (ragweed; [9]): 45 | pest or weed control at 16 g/ha (ragweed; Ambrosia artemisiifolia, post-emergence, 16 g ai/ha, postemergence, 0 is no effect, 100 is complete control, read-out: Plant response rating (0 to 100), Ragweed): 20% | pest or weed control at 125 g/ha (ragweed; Ambrosia artemisiifolia, post-emergence, 125 g ai/ha, postemergence, visual rating, scale 0 to 100 (0 no effect, 100 complete control), read-out: Plant response rating, Ragweed): 80% | pest or weed control at 62 g/ha (ragweed; Ambrosia artemisiifolia, post-emergence, Postemergence, 62 g ai/ha, scale 0 to 100 (0 no effect, 100 complete control), 13 to 15 days, read-out: Plant response rating, Ragweed): 55% | pest or weed control at 16 g/ha (giant foxtail; 16 g ai/ha, postemergence, 0 is no effect, 100 is complete control, read-out: Plant response rating (0 to 100), Foxtail, Giant): 10% | pest or weed control at 31 g/ha (giant foxtail; 31 g ai/ha, postemergence, visual rating, scale 0 to 100 (0 no effect, 100 complete control), 13 to 15 days, read-out: Foxtail, Giant plant response rating): 45% | pest or weed control at 125 g/ha (giant foxtail; 125 g ai/ha, postemergence, visual rating, scale 0 to 100 (0 no effect, 100 complete control), read-out: Plant response rating, Foxtail, Giant): 20% | pest or weed control at 62 g/ha (giant foxtail; Postemergence, 62 g ai/ha, scale 0 to 100 (0 no effect, 100 complete control), 13 to 15 days, read-out: Plant response rating, Foxtail, Giant): 25%
